The values that follow come from patent US7294710B2 (Japan Science and Technology Agency, priority 1999, dated 2007).

The subject of series [1] is high-affinity uptake of choline in brain synaptosomes. The note with it: cited from earlier work.
In series [2] the target is T1, rat CHT1 (high-affinity choline transporter) (Rattus norvegicus, UniProt Q9JMD7).
T1 construct: expressed in transfected cells; host or cells: Xenopus oocytes microinjected with CHT1 cRNA (clone in pSPUTK vector)
T1 sequence (Q9JMD7 1-580): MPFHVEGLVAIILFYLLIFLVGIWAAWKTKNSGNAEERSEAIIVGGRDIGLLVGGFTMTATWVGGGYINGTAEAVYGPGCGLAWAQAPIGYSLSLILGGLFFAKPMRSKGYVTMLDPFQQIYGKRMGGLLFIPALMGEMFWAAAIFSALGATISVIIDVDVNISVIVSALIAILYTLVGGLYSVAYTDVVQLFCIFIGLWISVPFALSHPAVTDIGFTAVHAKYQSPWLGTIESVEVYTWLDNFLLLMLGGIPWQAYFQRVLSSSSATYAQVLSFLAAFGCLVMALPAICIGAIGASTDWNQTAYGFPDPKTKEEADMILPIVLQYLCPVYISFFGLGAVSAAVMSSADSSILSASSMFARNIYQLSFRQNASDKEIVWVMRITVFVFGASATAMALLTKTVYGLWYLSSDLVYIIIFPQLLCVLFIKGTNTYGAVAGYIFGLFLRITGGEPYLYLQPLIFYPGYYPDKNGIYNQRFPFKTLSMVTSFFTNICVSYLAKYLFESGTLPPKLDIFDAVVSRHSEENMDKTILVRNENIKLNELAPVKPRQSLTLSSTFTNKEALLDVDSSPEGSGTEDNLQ
In words: [3H] choline uptake of Xenopus oocytes injected with CHT1 cRNA. The class given is cell-based. The procedure:
(§1) In the presence of cap analog, cRNA was synthesized in vitro with SP6 or T7 RNA polymerase. 20 to 30 ng capped RNA was microinjected into oocytes (stage V to VI) of Xenopus. The uptake was measured in basically same manner as described previously (Nature 360, 467-471, 1992). […] The oocytes completing uptake were solubilized with 10% SDS, and the amount of [^3H] was measured by a liquid scintillation counter.

The subject of series [3] is endogenous choline uptake of control oocytes. As to the kind of experiment: Choline uptake of control Xenopus oocytes injected with water. The series is classed as cell-based. To be noted: 10 μM HC3, oocytes injected with water. As to the method:
as §1

Series [4] deals with low-affinity uptake of choline, distributed in every cells. The note with it: read-out: Ki of HC3 for low-affinity uptake of choline, higher HC3 concentration; cited from earlier work.
The target in series [5] is T2, nematode high-affinity choline transporter cho-1 (C48D1.3) (Caenorhabditis elegans, UniProt O02228).
T2 construct: injecting each cRNA prepared from candidate full-length cDNAs; expressed in transfected cells; host or cells: Xenopus oocytes (stage V to VI) microinjected with capped cRNA transcribed from modified pSPUTK vector
T2 sequence (O02228 1-576): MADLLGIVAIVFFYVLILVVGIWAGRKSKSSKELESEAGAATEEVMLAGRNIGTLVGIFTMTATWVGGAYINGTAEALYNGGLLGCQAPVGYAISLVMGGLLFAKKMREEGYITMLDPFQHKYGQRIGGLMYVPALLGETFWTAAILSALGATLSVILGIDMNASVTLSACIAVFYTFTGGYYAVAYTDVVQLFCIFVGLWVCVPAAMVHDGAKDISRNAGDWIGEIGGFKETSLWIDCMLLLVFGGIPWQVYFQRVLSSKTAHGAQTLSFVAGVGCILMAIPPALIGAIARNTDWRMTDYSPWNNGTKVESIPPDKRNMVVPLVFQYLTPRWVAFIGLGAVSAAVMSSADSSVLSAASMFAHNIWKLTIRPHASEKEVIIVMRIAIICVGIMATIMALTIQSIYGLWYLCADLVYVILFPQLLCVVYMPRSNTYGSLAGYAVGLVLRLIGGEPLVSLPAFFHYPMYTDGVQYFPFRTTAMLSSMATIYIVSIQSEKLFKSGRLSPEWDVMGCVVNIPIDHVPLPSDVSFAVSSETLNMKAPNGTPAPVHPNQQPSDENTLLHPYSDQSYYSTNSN
In words: [3H] choline uptake of Xenopus oocytes injected with nematode cho-1 (C48D1.3) cRNA. The series is classed as cell-based, C. elegans. The procedure: In the presence of cap analog, cRNA was synthesized in vitro with SP6 or T7 RNA polymerase. 20 to 30 ng capped RNA was microinjected into oocytes (stage V to VI) of Xenopus. […] The oocytes completing uptake were solubilized with 10% SDS, and the amount of [^3H] was measured by a liquid scintillation counter.

Substrate in series [6]: C[N+](C)(C)CCO
In words: cells, lysate or membranes. To be noted: other: Michaelis-Menten fit, water-injected uptake subtracted, n=3; pH 7.4.

With `C[N+]1(C)CCOC(O)(c2ccc(-c3ccc(C4(O)C[N+](C)(C)CCO4)cc3)cc2)C1` (stereo not shown) [HC3, hemicholinium-3], the “inhibition of high-affinity uptake of choline” value in series [1] (1 μM HC3, brain synaptosomes of mammals) was “completely inhibited”. For the same molecule, the Ki in series [1] (read-out: Ki of HC3 for high-affinity uptake of choline, brain synaptosomes of mammals) is 0.01 to 0.1 µM; in series [2], 0.002 to 0.003 µM; in series [4] it was 50 µM; in series [5] it was 0.05 µM. The “inhibition of choline uptake of CHT1” value in series [2] (0.1 μM HC3) was “completely inhibited”. For the same molecule, the “inhibition of Na+-dependent choline uptake of CHT1” value in series [2] (CHT1 expressed in Xenopus oocytes, concentration not given) is reported as “completely inhibited”. Moreover, in series [3], the “inhibition of choline uptake in control” value was “only slight inhibition”. In series [5] (1 μM HC3, Xenopus oocytes), the “inhibition of cho-1 promoted choline uptake” value is recorded as “inhibited”.

B1: rat CHT1 (high-affinity choline transporter) (Rattus norvegicus) (protein)
chain: MPFHVEGLVAIILFYLLIFLVGIWAAWKTKNSGNAEERSEAIIVGGRDIGLLVGGFTMTATWVGGGYINGTAEAVYGPGCGLAWAQAPIGYSLSLILGGLFFAKPMRSKGYVTMLDPFQQIYGKRMGGLLFIPALMGEMFWAAAIFSALGATISVIIDVDVNISVIVSALIAILYTLVGGLYSVAYTDVVQLFCIFIGLWISVPFALSHPAVTDIGFTAVHAKYQSPWLGTIESVEVYTWLDNFLLLMLGGIPWQAYFQRVLSSSSATYAQVLSFLAAFGCLVMALPAICIGAIGASTDWNQTAYGFPDPKTKEEADMILPIVLQYLCPVYISFFGLGAVSAAVMSSADSSILSASSMFARNIYQLSFRQNASDKEIVWVMRITVFVFGASATAMALLTKTVYGLWYLSSDLVYIIIFPQLLCVLFIKGTNTYGAVAGYIFGLFLRITGGEPYLYLQPLIFYPGYYPDKNGIYNQRFPFKTLSMVTSFFTNICVSYLAKYLFESGTLPPKLDIFDAVVSRHSEENMDKTILVRNENIKLNELAPVKPRQSLTLSSTFTNKEALLDVDSSPEGSGTEDNLQ
By Km is commonly meant the concentration of substrate that gives half-maximal velocity. In the case of B1, the Km in series [6] was found to be 2.2 ± 0.2 µM.
